Reference: EP1001930B1, “N-HYDROXYFORMAMIDE DERIVATIVES AS INHIBITORS OF MATRIX METALLOPROTEINASES” (Abbott Laboratories, priority 1997, dated 1999)

biological target: T1, Recombinant truncated stromelysin (human sequence) (Homo sapiens, UniProt P08254); test: Determination of stromelysin inhibition (cleavage of thiopeptide ester substrate, DTNB colour read at 405 nm); format: biochemical; settings: substrate Ac-Pro-Leu-Gly-[2-mercapto-4-methylpentanoyl]-Leu-Gly-OEt; 30 minute assay at ambient temperature; 50 mM MES/NaOH pH 6.5 with 10 mM CaCl2 and 0.2% Pluronic F-68
T1 construct: made in house; host or cells: E. coli
T1 sequence (P08254 100-272 limits assumed): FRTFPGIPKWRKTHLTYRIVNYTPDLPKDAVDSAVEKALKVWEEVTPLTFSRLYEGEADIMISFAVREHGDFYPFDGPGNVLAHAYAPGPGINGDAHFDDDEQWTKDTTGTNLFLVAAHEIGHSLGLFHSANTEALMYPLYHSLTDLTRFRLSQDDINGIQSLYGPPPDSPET
Protocol: The efficacy of the compounds of this invention as matrix metalloproteinase inhibitors was determined by measuring the inhibition of stromelysin. The inhibition of stromelysin by the compounds of this invention was determined as follows: Recombinant truncated stromelysin (human sequence) produced in E. coli was prepared by expression and purification of the protein as described by Ye et al. (Biochemistry, 1992, 31, 11231-11235, which is incorporated herein by reference). The enzyme was assayed by its cleavage of the thiopeptide ester substrate Ac-Pro-Leu-Gly-[2-mercapto-4-methylpentanoyl]-Leu-Gly-OEt as described by Weingarten and Feder (Anal. Biochem., 1985, 147, 437-440 (1985), which is incorporated herein by reference) as a substrate of vertebrate collagenase. The reported conditions were modified to allow assays to be carried out in a microtiter plate. Upon hydrolysis of the thioester bond, the released thiol group reacted rapidly with 5,5'-dithio-bis(2-nitrobenzoic acid) (DTNB) to produce a yellow color which was measured by a microtiter plate reader set at 405 nm. The rates of cleavage of the substrate by stromelysin in the presence or absence of inhibitors were measured in a 30 minute assay at ambient temperature. Solutions of the compounds in DMSO were prepared, and these were diluted at various concentrations into the assay buffer (50 mM MES/NaOH pH 6.5 with 10 mM CaCl2 and 0.2% Pluronic F-68), which was also used for dilution of the enzyme and substrate. The potency of the compounds [IC50] was calculated from the inhibition/inhibitor concentration data.

IC50 [nM] | Structure (SMILES)
130 | N#Cc1ccc(-c2ccc(OCC(COc3ccccc3)N(O)C=O)cc2)cc1 (racemic) [Example 1, (±)-N-[1-[[(4'-cyano-[1,1'-biphenyl]-4-yl)oxy]methyl]-2-phenoxyethyl]-N-hydroxyformamide]
36 | N#Cc1ccc(-c2ccc(OCC(CSc3ccccc3)N(O)C=O)cc2)cc1 (racemic) [Example 2, (±)-N-[1-[[(4'-cyano-[1,1'-biphenyl]-4-yl)oxy]methyl]-2-(phenylthio)ethyl]-N-hydroxyformamide]
21 | N#Cc1ccc(-c2ccc(OCC(CN3C(=O)c4ccccc4C3=O)N(O)C=O)cc2)cc1 (racemic) [Example 3, (±)-N-[1-[[(4'-cyano-[1,1'-biphenyl]-4-yl)oxy]methyl]-2-(2,3-dihydro-1,3-dioxo-1H-isoindol-2-yl)ethyl]-N-hydroxyformamide]
30 | CCCCC(COc1ccc(-c2cccc(CC#N)c2)cc1)N(O)C=O (racemic) [Example 6, (±)-N-[1-[[[3'-(cyanomethyl)-[1,1'-biphenyl]-4-yl]oxy]methyl]pentyl]-N-hydroxyformamide]
170 | CCC(C)C(COc1ccc(-c2ccc(C#N)cc2)cc1)N(O)C=O (racemic) [Example 8, (± )-N-[1-[[(4'-cyano-[1,1'-biphenyl]-4-yl)oxy]methyl]-2-methylbutyl]-N-hydroxyformamide]
100 | CCCCC(COc1ccc(-c2ccc(C#N)cc2)cc1)N(O)C=O (racemic) [Example 9, (±)-N-[1-[[(4'-cyano-[1,1'-biphenyl]-4-yl)oxy]methyl]pentyl]-N-hydroxyformamide]
1500 | Cc1ccc(CC(COc2ccc(-c3ccc(C#N)cc3)cc2)N(O)C=O)cc1 (racemic) [Example 10, (±)-N-[1-[[(4'-cyano-[1,1'-biphenyl]-4-yl)oxy]methyl]-2-(4-methylphenyl)ethyl]-N-hydroxyformamide]
300 | N#Cc1ccc(-c2ccc(OCC(c3ccc(F)cc3)N(O)C=O)cc2)cc1 (racemic) [Example 11, (±)-N-[2-[(4'-cyano-[1,1'-biphenyl]-4-yl)oxy]-1-(4-fluorophenyl)ethyl)-N-hydroxyformamide]
180 | N#Cc1ccc(-c2ccc(OCC(Cc3ccc(F)cc3)N(O)C=O)cc2)cc1 (racemic) [Example 12, (±)-N-[1-[[(4'-cyano-[1,1'-biphenyl]-4-yl)oxy]methyl]-2-(4-fluorophenyl)ethyl]-N-hydroxyformamide]
310 | CC(COc1ccc(-c2ccc(C#N)cc2)cc1)N(O)C=O (racemic) [Example 13, (±)-N-[1-[[(4'-cyano-[1,1'-biphenyl]-4-yl)oxy]methyl]ethyl]-N-hydroxyformamide]
4000 | CC(=O)N(O)CCOc1ccc(-c2ccc(C#N)cc2)cc1 [Example 14, N-[2-[(4'-cyano-[1,1'-biphenyl]-4-yl)oxy]ethyl]-N-hydroxyacetamide]
620 | N#Cc1ccc(-c2ccc(OCCN(O)C=O)cc2)cc1 [Example 15]
